The test system of experiment [1] is FOXO1. As to the kind of experiment: FOXO1-dependent survival pathway and FOXO1 nuclear entry in cold stored mouse islets. Format: cell-based. Conditions: mouse pancreatic islets; inhibitor added to HS solution. The procedure: (§1) N-EM and protease inhibitors are added into HS to make HS+.
The next experiment relates to mouse pancreatic islets. Nature of the experiment: Cold survival of mouse pancreatic islets in preservation solutions. Format: cell-based. Conditions: N-EM added into UW solution, 2-D08 or ginkgolic acid added into HS solution. The procedure: as §1
Experiment [2] deals with rat corneal endothelial cells. As to the kind of experiment: Cold preservation of rat cornea: endothelial cell mortality (PI positive cells) and immunofluorescence staining. Format: cell-based. Conditions: 6-month-old rat cornea. Here is the method:
After injection of 0.5 μL C6 solution (10 μM/μL in goat serum solvent) into the anterior chamber of the eye through the limbal stroma. After 90 minutes, the cornea was taken and cold stored in a corneal preservation solution. After cold storage for 3 weeks and 4 weeks, the cold storage results were evaluated by immunofluorescence staining.
The corneal preservation solution of this example is the novel corneal preservation solution prepared in Example 3, with 20 μM C6 and the protease inhibitor mixture Pi (as described in WO2019/040359A1) added, and the final concentrations of the components in the protease inhibitor mixture Pi in the cold preservation solution are respectively: pepstatin 1 μM; leupeptin 2 μM; bestatin 5 μM; […] 0.5 μM; aprotinin 0.08 μM; AEBSF 100 μM.
0.5 μL of Apigenin solution (concentration 4 μM/μL, in goat serum solvent) was injected into the anterior chamber through the limbal stroma, and 20 minutes later, the cornea was removed and stored in the novel preservation solution prepared in Example 3 (with 4 μM Apigenin and Pi previously added). After cold storage for 3 weeks and 4 weeks, the cold storage results were evaluated by immunofluorescence staining.

The test system of experiment [3] is FOXO1. As to the kind of experiment: FOXO1 nuclear entry in corneal endothelial cells after anterior chamber injection (immunofluorescence). The experiment is classed as in vivo, rat. Conditions: 6-month-old rats.
The subject of a further experiment is mice pancreatic islets. As to the kind of experiment: Mouse pancreatic islets stored at 4° C. versus 1640 culture solution. The experiment is classed as cell-based. Conditions: mice pancreatic islets stored at 4° C.; C6 and Apigenin added to the novel preservation solution (MM). Here is the method:
In another example, mice pancreatic islets were extracted and stored at 4° C. in cold storage. The conventional 1640 culture solution which is commonly used is used as a control group.

The test system of a further experiment is human islets. Nature of the experiment: Cold storage of human islets. Format: cell-based. Conditions: prolonged cold storage.
Setting [4] is: after anterior chamber injection (C6 20 μM/μL, Apigenin 4 μM/μL, goat serum solvent), before cold stimulation.
Setting [5] is: after anterior chamber injection and cold stimulation.

“Also recorded” adds a separate entry of the source.

As to `O=c1cc(-c2ccc(O)c(O)c2O)oc2ccccc12` [2-D08], the “cold-induced FOXO1 nuclear entry” value in the experiment with FOXO1 [1] was “repressed”. In addition, in the experiment on mouse pancreatic islets, the “islet cold survival / islet cell death” value is “islet cell death became severe”.

For `O=c1cc(-c2ccc(O)cc2)oc2cc(O)cc(O)c12` [Apigenin], the “corneal endothelial cell death, in words” value in experiment [2] (cold preservation 3 weeks) is on record as “decreased mortality”; in experiment [2] (cold storage 4 weeks), “significantly reduced”. The “corneal endothelium structure (hexagonal structure, F-actin, nuclei)” value in experiment [2] (cold storage 4 weeks (28 days, 4° C.)) is “largely intact endothelium”. In addition, the “FOXO1 nucleus entry in corneal endothelial cells” value was “did not cause FOXO1 to enter nucleus” with FOXO1 [3] (setting [4]); “activated FOXO1 to enter the nucleus” in the experiment with FOXO1 [3] (setting [5]); “weak nuclear entering effect is still maintained” with FOXO1 [3] (after cold stimulation and rewarming). In addition, the islet cell death result in the experiment on mice pancreatic islets was “further reduced the number of dead cells”.

As to `CCCCCCCCCCCCC/C=C/[C@@H](O)[C@H](CO)NC(=O)CCCCC` [C6, C6 ceramide], the “corneal endothelial cell death, in words” value in experiment [2] (cold preservation 3 weeks) is recorded as “reduction in the number of dead corneal endothelial cells”. In addition, the results for the “FOXO1 nucleus entry in corneal endothelial cells” value in the experiment with FOXO1 [3] (setting [4]) and with FOXO1 [3] (setting [5]) were “activate FOXO1 nucleus entry” and “nucleus entry signal was enhanced”, respectively. Further, in the experiment on mice pancreatic islets, the islet cell death entry was “further reduced the number of dead cells”.

For the molecule `CCN1C(=O)C=CC1=O` [N-Ethylmaleimide], in the experiment with human islets, the “outcome of cold storage of human islets” value is on record as “enables longer term cold storage”. The “islet cold survival / islet cell death” value in the experiment with mouse pancreatic islets was “enables longer term cold storage; also recorded: islet cold survival is improved”.

Consider ginkgolic acid, for which the “cold-induced FOXO1 nuclear entry” value in the experiment with FOXO1 [1] is “repressed”. Further, the “islet cold survival / islet cell death” value in the experiment on mouse pancreatic islets is listed as “islet cell death became severe”.
